Tests used:
[1] = molecular target: endoglucanase; test: In vitro endoglucanase inhibition, CMC assay (I50 determination); format: biochemical, R. flavipes; conditions: foregut/salivary gland/midgut (endogenous) and hindgut (symbiotic) fractions, FIG. 4
Description: (§1) Gut dissections were carried out for cellulase distribution and inhibition studies. For dissections, termites were immobilized on ice, decapitated, and the entire digestive tract removed through a small incision made in the abdominal exoskeleton. For cellulase distribution studies, dissected guts were divided into three regions: (i) salivary gland+foregut, (ii) midgut and (iii) hindgut. For inhibition studies, guts were divided into two major components that included: (i) foregut, salivary gland and midgut, and (ii) hindgut. […]
(§2) Cellulase activity assays were adapted from Han et al. in “Characterization of a bifunctional cellulase and its structural gene,” J. Biol. Chem. 270 (1995) 26012-26019, with optimization for a 96-well microplate format. […] Color was allowed to develop on ice for 15 min before measuring absorbance at 540 nm relative to a glucose standard curve.
The efficacy of the three carbohydrate-based cellulase inhibitors CBI (FIG. 1D), FMG (FIG. 1E) and FMCB (FIG. 1F) was tested against two different gut enzyme sources that included (i) endogenous termite cellulases from salivary gland, foregut and midgut, and (ii) symbiotic cellulases from the hindgut. […] Percent inhibition was calculated relative to methanol controls. […]

[2] = molecular target: T1, Cel5A enzyme (Salipaludibacillus agaradhaerens, UniProt O85465); conditions: Varrott et al.; read-out: I50 value; cited from earlier work
T1 sequence (O85465 27-400): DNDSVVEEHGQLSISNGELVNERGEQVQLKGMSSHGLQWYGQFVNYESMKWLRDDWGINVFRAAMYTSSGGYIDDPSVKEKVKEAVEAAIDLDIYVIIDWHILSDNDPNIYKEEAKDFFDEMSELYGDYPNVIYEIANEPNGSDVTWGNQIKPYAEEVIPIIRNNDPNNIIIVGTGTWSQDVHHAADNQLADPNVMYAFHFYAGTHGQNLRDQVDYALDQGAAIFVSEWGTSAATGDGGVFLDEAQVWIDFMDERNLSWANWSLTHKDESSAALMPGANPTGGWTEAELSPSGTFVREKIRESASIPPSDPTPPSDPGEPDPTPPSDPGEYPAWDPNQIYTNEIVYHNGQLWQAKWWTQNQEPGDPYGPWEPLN

[3] = molecular target: T2, 6A cellobiohydrolase (exoglucanase) (Trichoderma reesei, UniProt P07987); conditions: non-competitive inhibition; Vonhoff et al.; read-out: I50; cited from earlier work
T2 sequence (P07987 25-471): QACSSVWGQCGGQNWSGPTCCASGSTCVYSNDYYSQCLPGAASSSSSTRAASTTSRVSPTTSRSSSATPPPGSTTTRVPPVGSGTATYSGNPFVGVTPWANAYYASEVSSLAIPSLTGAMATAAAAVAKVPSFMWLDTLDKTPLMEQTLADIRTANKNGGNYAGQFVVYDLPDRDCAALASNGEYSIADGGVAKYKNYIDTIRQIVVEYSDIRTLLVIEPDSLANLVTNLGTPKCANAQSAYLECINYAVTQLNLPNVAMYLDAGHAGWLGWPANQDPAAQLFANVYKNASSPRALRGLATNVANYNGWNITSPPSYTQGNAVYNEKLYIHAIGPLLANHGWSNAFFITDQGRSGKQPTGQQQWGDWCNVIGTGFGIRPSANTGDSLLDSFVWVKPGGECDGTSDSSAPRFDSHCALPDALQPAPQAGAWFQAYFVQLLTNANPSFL

[4] = molecular target: β-glucosidase; test: In vitro β-glucosidase inhibition, pNPG assay (I50 determination); format: biochemical, R. flavipes; conditions: foregut/salivary gland/midgut (endogenous) and hindgut (symbiotic) fractions, FIG. 4
Description: as §1, §2
The hydrolysis product of both the pNPC and pNPG substrates is p-nitrophenol, which is yellow in color and permits for direct quantification of activity in a kinetic assay. pNPC and pNPG assays were initially incubated at 32° C. for 20 min before measuring the release of the product, p-nitrophenol, at 420 nm. The absorbance of reactions was read every 2 min for 1 hr and activity was determined based on rate of absorbance change. […]

Compound	I50 against endoglucanase activity [1]	IC50 [2] [µM]	IC50 [3] [µM]	I50 against β-glucosidase activity [4]
OC[C@@H]1[C@@H](O[C@@H]2O[C@H](CO)[C@@H](O)[C@H](O)[C@H]2O)[C@H](O)[C@@H](O)c2nccn21 [CBI, cellobioimidazole]	virtually no activity	88	1	I50s in the nM-μM range
fluoromethyl glucose [FMG]	virtually no inhibitory properties			virtually no inhibitory properties

Source: US20080107619A1, “Carbohydrate based cellulase inhibitors as feeding stimulants in termites” (University of Florida Research Foundation, Inc., priority 2006, published 2008)
